From PubChem BioAssay AID624435 (The Scripps Research Institute Molecular Screening Center, 2012)
Calls of active or inactive are those of the source.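 The calls were made as follows: active = inhibition of 30% or more at 100 µM, inferred from the inactive rule; inactive = inhibition below 30% at 100 µM.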

Molecular target: Serine/threonine-protein phosphatase 5 (Homo sapiens) (UniProt P53041)
Assay: PP5c phosphohistone dephosphorylation blockade – biochemical, radiolabel, round 5, powder samples, orthogonal assay for PP5 inhibitor project, late-stage follow-up (AID 624435)
Details: purified PP5c, 33P-phosphohistone dephosphorylation, scintillation; at 50 µM; active compounds read high

Serine/threonine-protein phosphatase 5 (Homo sapiens), sequence (P53041 whole entry, looked up): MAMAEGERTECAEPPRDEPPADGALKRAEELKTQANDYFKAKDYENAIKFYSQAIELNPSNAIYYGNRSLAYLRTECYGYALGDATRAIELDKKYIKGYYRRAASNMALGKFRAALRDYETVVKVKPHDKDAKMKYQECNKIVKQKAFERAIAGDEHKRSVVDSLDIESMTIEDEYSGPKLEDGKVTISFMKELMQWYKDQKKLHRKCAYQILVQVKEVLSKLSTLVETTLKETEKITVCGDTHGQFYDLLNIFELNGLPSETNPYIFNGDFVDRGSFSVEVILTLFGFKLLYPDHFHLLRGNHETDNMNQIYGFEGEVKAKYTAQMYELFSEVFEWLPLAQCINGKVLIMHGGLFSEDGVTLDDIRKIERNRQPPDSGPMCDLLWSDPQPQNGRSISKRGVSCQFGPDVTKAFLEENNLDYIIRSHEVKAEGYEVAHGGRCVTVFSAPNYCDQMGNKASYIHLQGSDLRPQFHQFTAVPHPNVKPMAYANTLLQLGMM

Row | SMILES | inhibition
1 | O=C(O)c1cc2cccnc2[nH]1 | -2.5% (inactive)
2 | Cc1cccc(-n2cnc(C(=O)O)c2)c1 | 2.84% (inactive)
3 | O=C(O)c1nnn(-c2ccccc2)c1-c1ccccc1 | 0.733% (inactive)
4 | O=C(O)c1cccn1-c1ccccc1 | -3.17% (inactive)
5 | O=C(O)c1cnn2ccccc12 | -5.1% (inactive)
6 | O=C(O)c1ccccc1-n1cccc1 | -7.51% (inactive)
7 | O=C(O)c1csc(Nc2ccccc2)n1 | -0.948% (inactive)
8 | O=C(O)c1ncn[nH]1 | 2.61% (inactive)
9 | Cc1onc(C(=O)O)c1Cn1cccn1 | -2.66% (inactive)
10 | O=C(O)CCn1nnc2ccccc21 | 0.241% (inactive)
11 | O=C(O)c1nc(-n2cccc2)n[nH]1 | -1.61% (inactive)
12 | O=C(O)c1nn(Cc2ccccc2)nc1Cl | 0.71% (inactive)
13 | O=C(O)c1cn[nH]n1 | -0.0127% (inactive)
14 | O=C(O)c1c(-c2ccccc2)nnc2ccccc12 | -0.78% (inactive)
15 | O=C(O)c1nc2ncccn2n1 | -1.84% (inactive)
16 | O=C(O)c1cc2ccccn2n1 | -0.0487% (inactive)
17 | O=C(O)c1cn(Cc2ccccc2)nn1 | -4.42% (inactive)

The next lines start with the values.

Row | inhibition | SMILES
18 | 30.2% | CC(C)c1ccccc1-c1n[nH]nc1C(=O)O
19 | 67.5% | CC(C)Oc1ccccc1-c1n[nH]nc1C(=O)O
20 | -5.88% (inactive) | O=C(O)c1ccccc1-c1ccccc1
21 | -4.13% (inactive) | Cc1scc(C(=O)O)c1-c1ccccc1
22 | 0.388% (inactive) | O=C(O)Cn1nnc2ccccc21
23 | 41.2% | O=C(O)c1n[nH]nc1-c1ccccc1-c1ccccc1
24 | 2.2% (inactive) | O=C(O)c1n[nH]nc1-c1cccnc1
25 | 0.116% (inactive) | O=C(O)c1ccccc1-c1nn[nH]n1
26 | -5.7% (inactive) | O=C(O)c1cn[nH]c1-c1ccccc1
27 | -6.61% (inactive) | O=C(O)c1cc(-c2ccccc2)ncn1
28 | 31.5% | O=C(O)c1n[nH]nc1-c1ccccn1
29 | -1.07% (inactive) | O=C(O)c1n[nH]c2ccccc12
30 | 1.67% (inactive) | COC(=O)c1n[nH]nc1-c1ccccc1
31 | 44.3% | CCc1ccccc1-c1n[nH]nc1C(=O)O
32 | -4.55% (inactive) | O=C(O)c1cc(-c2ccccc2)n[nH]1
33 | -5.14% (inactive) | Cc1cccc(-c2noc(C)c2C(=O)O)c1
34 | -2.04% (inactive) | O=C(O)c1c[nH]cc1-c1ccccc1
35 | 39% | Cc1ccccc1-c1n[nH]nc1C(=O)O
36 | -4.84% (inactive) | Cc1n[nH]nc1C(=O)O
